Test results taken from US20160346392A1, “PULSE PHOTODYNAMIC TREATMENT OF SKIN CONDITIONS” (GALDERMA RESEARCH & DEVELOPMENT, priority 2013, published 2016).
Entries after “also recorded” stand apart in the source; their conditions may differ. Read-outs that look alike come from different tables or passages of the source.

What was measured:
PpIX fluorescence = experiment: Metvix pulse time investigation (Method B) on healthy volunteers: PpIX fluorescence; assay type: in vivo, human; details: short (30 min) pulse vs conventional 3-hour exposure; Table 1 and FIG. 8
Experimental: (§1) The formation of PPIX after 3 hours is seen in FIG. 8, and the relation to inflammation is seen in FIG. 9. […] The results are illustrated in Column 3 in FIGS. 4, 5, 6, and 7. […] Pain level is not changed.
Twenty-four healthy male volunteers of Scandinavian ancestry were included in the study (mean age 30 years, range 20-51). A treatment area was selected on the inside of both forearms of the volunteer. Each treatment area was divided into four minor treatment fields of the size 2×5 cm with at least 3 cm between each field using a prefabricated flexible template. In order to imitate skin lesions all fields were tape stripped 10 times with occlusive dressing before treatment (Tegaderm™ Roll, 3M, Glostrup, Denmark). […]
All fields were covered with light-impermeable, occlusive dressing. […] During and after illumination pain was recorded. […]
5-MAL-induced PpIX fluorescence was depicted non-invasively using a fluorescence camera (Medeikonos AB, Gothenburg, Sweden). The amount of PpIX fluorescence was calculated from the photographs by the program MatLab® (MatLab®, MathWorks, Natic, US). The amount of fluorescence was measured before tape stripping and cream application (baseline) and before and after illumination.
The photo bleaching is then the difference in PpIX fluorescence (AU) calculated from the pre and post illumination images.

[1] = Method A investigation of efficacy and inflammation with 30 min pulse exposure PDT; assay type: in vivo
Experimental: as §1

acne [2] = details: cream 16% wt. applied to face for 3 hours, non-coherent red light, repeated 2 weeks later; cited from earlier work
acne [3] = details: 20% ALA acid applied to back for 3 hours, 150 J/cm2 broad band light; cited from earlier work

| inflammation (erythema) ([1]; 30 min pulse exposure vs conventional 180 min exposure, FIGS. 6, 7) | pain level ([1]; 30 min pulse exposure vs conventional exposure, FIG. 4) | SMILES | PPIX concentration, pulse exposure versus conventional 3-hour exposure (PpIX fluorescence) | cure rate / efficacy ([1]; 30 min pulse exposure vs conventional exposure, FIG. 5) | efficacy in treatment of acne (acne [2]) | side effects of treatment (acne [2]) | efficacy in treatment of acne (acne [3]) | side effects of treatment (acne [3]) |
| --- | --- | --- | --- | --- | --- | --- | --- | --- |
| less inflammation | not changed | COC(=O)CCC(=O)CN [5-MAL, 5-ALA methyl ester] | clearly lower than for the conventional 3 hour exposure | unchanged efficacy; also recorded: as efficient | effective in the treatment of acne | caused pain and induced severe inflammation |  |  |
|  |  | NCC(=O)CCC(=O)O [ALA, 5-amino-4-oxo-pentanoic acid] |  |  |  |  | effective for the treatment of acne | erythema, hyperpigmentation and exfoliation were often seen after PDT treatment |
